From ChEMBL document CHEMBL1909046, “DrugMatrix in vitro pharmacology data”

Experiments:
[1] = DRUGMATRIX: Purinergic P2X radioligand binding (ligand: [3H] alpha, beta-Methylene-ATP); type: cell membranes, Oryctolagus cuniculus, New Zealand albino, Urinary bladder, Membrane; settings: Not Active = under 50% inhibition at 10 µM
[2] = molecular target: T1, Amine oxidase [flavin-containing] A (Homo sapiens, UniProt P21397); experiment: DRUGMATRIX: Monoamine Oxidase MAO-A enzyme inhibition (substrate: Kynuramine); parameters: species or system BTI-TN-5B1-4; settings: bti-tn-5b1-4; Not Active = under 50% inhibition at 10 µM
T1 sequence (P21397 whole entry): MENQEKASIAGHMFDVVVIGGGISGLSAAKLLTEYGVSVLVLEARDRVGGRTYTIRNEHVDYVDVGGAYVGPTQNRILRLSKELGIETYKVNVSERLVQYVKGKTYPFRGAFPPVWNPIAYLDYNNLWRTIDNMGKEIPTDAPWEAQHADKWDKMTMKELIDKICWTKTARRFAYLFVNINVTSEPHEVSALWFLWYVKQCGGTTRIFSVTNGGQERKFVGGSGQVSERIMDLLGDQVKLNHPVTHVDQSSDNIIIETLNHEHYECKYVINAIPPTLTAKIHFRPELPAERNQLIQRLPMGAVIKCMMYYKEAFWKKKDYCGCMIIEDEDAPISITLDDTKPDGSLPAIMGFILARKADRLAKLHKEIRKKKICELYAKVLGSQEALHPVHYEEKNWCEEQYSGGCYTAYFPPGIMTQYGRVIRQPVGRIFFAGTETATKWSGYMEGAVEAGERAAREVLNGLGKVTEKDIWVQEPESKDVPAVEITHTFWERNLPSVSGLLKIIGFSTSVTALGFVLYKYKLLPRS

[3] = molecular target: T2, Alpha-2A adrenergic receptor (Homo sapiens, UniProt P08913); type: cell membranes, Sf9, Membrane; settings: sf9; note: in other assays of this panel Not Active means under 50% inhibition at 10 µM
T2 sequence (P08913 whole entry): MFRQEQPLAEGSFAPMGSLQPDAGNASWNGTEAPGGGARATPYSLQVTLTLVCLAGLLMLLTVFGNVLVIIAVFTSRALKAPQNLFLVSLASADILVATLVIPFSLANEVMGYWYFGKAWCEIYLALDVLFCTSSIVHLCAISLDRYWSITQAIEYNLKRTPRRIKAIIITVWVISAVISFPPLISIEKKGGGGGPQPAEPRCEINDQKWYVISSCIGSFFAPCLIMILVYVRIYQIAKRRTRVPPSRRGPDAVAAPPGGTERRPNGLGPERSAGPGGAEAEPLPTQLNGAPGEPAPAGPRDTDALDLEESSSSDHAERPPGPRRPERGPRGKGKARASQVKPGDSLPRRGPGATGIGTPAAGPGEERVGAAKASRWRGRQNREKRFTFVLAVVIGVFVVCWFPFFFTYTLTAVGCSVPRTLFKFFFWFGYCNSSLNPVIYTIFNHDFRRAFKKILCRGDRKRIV

Neutrophil elastase = molecular target: T3, Neutrophil elastase (Homo sapiens, UniProt P08246); type: tissue-based;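 note: inhibition of neutrophil elastase enzyme activity, measured with a p-nitroanilide-linked peptide substrate; in other assays of this panel Not Active means under 50% inhibition at 10 µM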
T3 sequence (P08246 whole entry): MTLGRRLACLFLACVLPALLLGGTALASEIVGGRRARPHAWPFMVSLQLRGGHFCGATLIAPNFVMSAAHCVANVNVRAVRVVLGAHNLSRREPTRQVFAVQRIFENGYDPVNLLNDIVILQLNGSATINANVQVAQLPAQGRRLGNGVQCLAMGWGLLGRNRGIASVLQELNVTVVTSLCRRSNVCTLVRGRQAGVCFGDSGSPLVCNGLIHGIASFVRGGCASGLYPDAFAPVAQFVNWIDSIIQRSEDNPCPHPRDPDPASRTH

[4] = DRUGMATRIX: Interleukin IL-1 radioligand binding (ligand: [125I] interleukin 1beta); type: cell membranes, Membrane; settings: nih3t3; Not Active = under 50% inhibition at 10 µM
[5] = DRUGMATRIX: Phosphodiesterase PDE3 enzyme inhibition (substrate: [3H]cAMP + cAMP); type: tissue-based, Homo sapiens; settings: platelet; Not Active = under 50% inhibition at 10 µM
[6] = DRUGMATRIX: Phorbol Ester radioligand binding (ligand: [3H] PDBu); type: cell membranes, Mus musculus, ICR, Brain, Membrane; settings: Not Active = under 50% inhibition at 10 µM
[7] = DRUGMATRIX: Glutamate, NMDA, Phencyclidine radioligand binding (ligand: [3H] TCP); type: cell membranes, Rattus norvegicus, Wistar, Cerebral cortex, Membrane; settings: Not Active = under 50% inhibition at 10 µM
D(1A) dopamine receptor = D(1A) dopamine receptor (Homo sapiens, UniProt P21728); experiment: DRUGMATRIX: Dopamine D1 radioligand binding (ligand: [3H] SCH-23390); type: cell membranes, CHO, Membrane; settings: cho; Not Active = under 50% inhibition at 10 µM
D(1A) dopamine receptor, sequence (P21728 whole entry): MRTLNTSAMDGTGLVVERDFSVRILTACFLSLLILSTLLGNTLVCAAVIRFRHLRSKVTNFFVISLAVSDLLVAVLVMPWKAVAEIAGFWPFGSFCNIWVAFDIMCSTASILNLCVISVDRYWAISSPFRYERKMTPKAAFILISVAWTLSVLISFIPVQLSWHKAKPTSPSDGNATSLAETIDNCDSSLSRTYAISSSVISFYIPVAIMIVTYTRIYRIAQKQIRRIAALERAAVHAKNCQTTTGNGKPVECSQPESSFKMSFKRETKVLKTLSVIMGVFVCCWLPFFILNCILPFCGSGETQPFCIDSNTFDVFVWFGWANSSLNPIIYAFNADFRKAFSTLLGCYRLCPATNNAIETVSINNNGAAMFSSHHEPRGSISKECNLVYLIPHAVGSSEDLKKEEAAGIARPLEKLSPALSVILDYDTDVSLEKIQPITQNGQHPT

[8] = molecular target: T4, Cholecystokinin receptor type A (Homo sapiens, UniProt P32238); type: cell membranes, Membrane; settings: 1321-n1; note: in other assays of this panel Not Active means under 50% inhibition at 10 µM
T4 sequence (P32238 whole entry): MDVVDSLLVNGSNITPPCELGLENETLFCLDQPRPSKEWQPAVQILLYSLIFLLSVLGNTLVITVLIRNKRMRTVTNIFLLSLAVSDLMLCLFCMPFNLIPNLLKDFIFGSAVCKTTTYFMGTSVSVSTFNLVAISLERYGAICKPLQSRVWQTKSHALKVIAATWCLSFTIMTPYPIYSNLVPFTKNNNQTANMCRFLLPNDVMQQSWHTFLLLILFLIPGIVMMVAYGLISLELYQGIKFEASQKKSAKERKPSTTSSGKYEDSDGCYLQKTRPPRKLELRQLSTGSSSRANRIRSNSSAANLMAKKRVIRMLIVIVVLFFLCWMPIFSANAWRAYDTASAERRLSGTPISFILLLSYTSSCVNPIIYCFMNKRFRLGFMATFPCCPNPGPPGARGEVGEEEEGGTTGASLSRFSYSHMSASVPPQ

[9] = DRUGMATRIX: Platelet-Derived Growth Factor (PDGF) radioligand binding (ligand: [125I] PDGF); type: cell-based; settings: nih3t3; Not Active = under 50% inhibition at 10 µM
Carbonic anhydrase 2 = Carbonic anhydrase 2 (Homo sapiens, UniProt P00918); experiment: DRUGMATRIX: Carbonic Anhydrase II enzyme inhibition (substrate: 4-Nitrophenyl acetate (4-NPA)); type: tissue-based, Erythrocyte; settings: erythrocyte; Not Active = under 50% inhibition at 10 µM
[10] = molecular target: T5, Cysteinyl leukotriene receptor 1 (Homo sapiens, UniProt Q9Y271); type: cell membranes, CHO-K1, Membrane; settings: cho-k1; note: in other assays of this panel Not Active means under 50% inhibition at 10 µM
T5 sequence (Q9Y271 whole entry): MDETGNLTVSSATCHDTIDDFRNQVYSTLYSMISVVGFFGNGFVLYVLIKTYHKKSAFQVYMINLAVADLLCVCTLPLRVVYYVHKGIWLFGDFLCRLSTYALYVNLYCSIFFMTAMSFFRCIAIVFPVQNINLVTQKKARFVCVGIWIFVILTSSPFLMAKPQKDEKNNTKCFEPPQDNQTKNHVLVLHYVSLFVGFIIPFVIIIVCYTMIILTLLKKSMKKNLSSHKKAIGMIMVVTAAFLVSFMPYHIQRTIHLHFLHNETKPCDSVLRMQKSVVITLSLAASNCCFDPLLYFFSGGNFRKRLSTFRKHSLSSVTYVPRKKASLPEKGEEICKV

NCC1(CC(=O)O)CCCCC1 [GABAPENTIN]
Not Active: IC50 [1] | Ki [1] | IC50 [2] | IC50 [3] | IC50 (Neutrophil elastase) | IC50 [4] | Ki [4] | IC50 [5] | Ki [5] | IC50 [6] | Ki [6] | IC50 [7] | Ki [7] | IC50 (D(1A) dopamine receptor) | IC50 [8] | IC50 [9] | Ki [9] | IC50 (Carbonic anhydrase 2) | IC50 [10]

O=P1(NCCCl)OCCCN1CCCl (configuration not stated) [IFOSFAMIDE]
Not Active: IC50 [1] | Ki [1] | IC50 [2] | IC50 [3] | IC50 (Neutrophil elastase) | IC50 [4] | Ki [4] | IC50 [5] | Ki [5] | IC50 [6] | Ki [6] | IC50 [7] | Ki [7] | IC50 (D(1A) dopamine receptor) | IC50 [8] | IC50 [9] | Ki [9] | IC50 (Carbonic anhydrase 2) | IC50 [10]

CC1COc2c(N3CCN(C)CC3)c(F)cc3c(=O)c(C(=O)O)cn1c23 (configuration not stated) [OFLOXACIN]
Not Active: IC50 [1] | Ki [1] | IC50 [2] | IC50 [3] | IC50 (Neutrophil elastase) | IC50 [4] | Ki [4] | IC50 [5] | Ki [5] | IC50 [6] | Ki [6] | IC50 [7] | Ki [7] | IC50 (D(1A) dopamine receptor) | IC50 [8] | IC50 [9] | Ki [9] | IC50 (Carbonic anhydrase 2) | IC50 [10]

Fc1ccc([C@@H]2CCNC[C@H]2COc2ccc3c(c2)OCO3)cc1 [PAROXETINE]
Not Active: IC50 [1] | Ki [1] | IC50 [2] | IC50 [3] | IC50 (Neutrophil elastase) | IC50 [4] | Ki [4] | IC50 [5] | Ki [5] | IC50 [6] | Ki [6] | IC50 [7] | Ki [7] | IC50 (D(1A) dopamine receptor) | IC50 [8] | IC50 [9] | Ki [9] | IC50 (Carbonic anhydrase 2) | IC50 [10]

O=C1NC(=O)C(c2ccccc2)(c2ccccc2)N1 [PHENYTOIN]
Not Active: IC50 [1] | Ki [1] | IC50 [2] | IC50 [3] | IC50 (Neutrophil elastase) | IC50 [4] | Ki [4] | IC50 [5] | Ki [5] | IC50 [6] | Ki [6] | IC50 [7] | Ki [7] | IC50 (D(1A) dopamine receptor) | IC50 [8] | IC50 [9] | Ki [9] | IC50 (Carbonic anhydrase 2) | IC50 [10]

CNC(=O)Oc1ccc2c(c1)[C@]1(C)CCN(C)[C@@H]1N2C [PHYSOSTIGMINE]
Not Active: IC50 [1] | Ki [1] | IC50 [2] | IC50 [3] | IC50 (Neutrophil elastase) | IC50 [4] | Ki [4] | IC50 [5] | Ki [5] | IC50 [6] | Ki [6] | IC50 [7] | Ki [7] | IC50 (D(1A) dopamine receptor) | IC50 [8] | IC50 [9] | Ki [9] | IC50 (Carbonic anhydrase 2) | IC50 [10]

CN1C(C(=O)Nc2ccccn2)=C(O)c2ccccc2S1(=O)=O [PIROXICAM]
Not Active: IC50 [1] | Ki [1] | IC50 [2] | IC50 [3] | IC50 (Neutrophil elastase) | IC50 [4] | Ki [4] | IC50 [5] | Ki [5] | IC50 [6] | Ki [6] | IC50 [7] | Ki [7] | IC50 (D(1A) dopamine receptor) | IC50 [8] | IC50 [9] | Ki [9] | IC50 (Carbonic anhydrase 2) | IC50 [10]

CCCc1cc(=O)[nH]c(=S)[nH]1 [PROPYLTHIOURACIL]
Not Active: IC50 [1] | Ki [1] | IC50 [2] | IC50 [3] | IC50 (Neutrophil elastase) | IC50 [4] | Ki [4] | IC50 [5] | Ki [5] | IC50 [6] | Ki [6] | IC50 [7] | Ki [7] | IC50 (D(1A) dopamine receptor) | IC50 [8] | IC50 [9] | Ki [9] | IC50 (Carbonic anhydrase 2) | IC50 [10]
